Assay results: patent US4086239A, “Thiazole bis-phosphates and phosphonates, intermediates, and insecticidal compositions and methods” (priority 1977, dated 1978)

Tests used:
Type in all cases: in vivo
[1] = system: Housefly [Musca domestica (L.)]; assay: Housefly insecticide evaluation; details: per 25 female houseflies; mortality after 48 hours
Description: A. Housefly [Musca domestica (L.) ]
The test compound is diluted in acetone and an aliquot is pipetted onto the bottom of a 55 × 15 mm aluminum dish. To insure even spreading on the bottom of the dish, 1 ml of acetone containing 0.02% peanut oil is added. After all the solvent has evaporated, the dish is placed in a circular cardboard cage containing 25 1-day-old female houseflies. The cage is covered on the bottom with cellophane and the top with tulle netting, and contains a sugar-water saturated cotton plug for maintenance of the flies. Mortality is recorded after 48 hours. The primary screening level for this test is 100 micrograms of the test compound per 25 female houseflies.
(§1) For a particular insect, each compound was initially tested at the primary screening level. For the two-spotted mite, the testing stopped at this point. Those compounds showing less than 50% kill are represented in the table by the primary screening level preceded by a "greater than" sign. For those showing more than 50% kill, a "less than" sign is used. For all other insects those compounds showing greater than 50% kill at the primary screening level were then tested at successively lower levels, until the level was found at which approximately 50% kill was achieved. This level is listed as the LD50 (50% lethal dose) value in Table III. For those compounds showing approximately 50% kill at the primary screening level, the primary screening level itself is listed as the LD50.
(§2) In cases where this level was found, the level is reported as the LD50. When the level of 50% kill was not found, the number listed is the highest concentration tested, whether primary screen or higher, preceded by a "greater than" sign to indicate that a higher level than reported must be used to achieve 50% kill.

[2] = system: Black Bean Aphid [Aphis fabae (Scop.)]; assay: Direct spray assay on black bean aphid; details: % by weight in acetone-water, mortality after 3 days
Description: D. Direct Spray Assay on Black Bean Aphid [Aphis fabae (Scop.)]
A nasturtium plant (Tropaeolum sp.), approximately 5 cm tall, is transplanted into sandy loam soil in a 3-inch clay pot and infested with 25-50 black bean aphids of mixed ages. Twenty-four hours later the plant is sprayed, to the point of runoff, with a 50-50 acetone-water solution of the test chemical. The treated plant is held in the greenhouse and mortality is recorded after 3 days. The primary screening level for this test is 0.05% by weight of the test compound in the acetone-water solution.
as §1, §2

[3] = system: Green Peach Aphid [Myzus persicae (Sulzer)]; assay: Direct spray assay on green peach aphid; details: % by weight in acetone-water, mortality after 3 days
Description: E. Direct Spray Assay on Green Peach Aphid [Myzus persicae (Sulzer)]
A radish plant (Rhaphanus sativus), approximately 2 cm tall, is transplanted into sandy loam soil in a 3-inch clay pot and infested with 25-50 green peach aphids of mixed ages. Twenty-four hours later the plant is sprayed, to the point of runoff, with a 50-50 acetone-water solution of the test compound. The treated plant is held in a greenhouse and mortality is recorded after 3 days. The primary screening level for this test is 0.05% by weight of the test compound in the acetone-water solution.
as §1, §2

[4] = system: Salt-marsh Caterpillar [Estigmene acrea (Druryl)]; assay: Salt-marsh caterpillar leaf dip test; details: % by weight in solution, larvae, 48 hours plus 5 days if survivors
Description: G. Salt-marsh Caterpillar [Estigmene acrea (Druryl)]
(§3) A test solution is prepared by dissolving the test compound in a 50-50 acetone-water solution. A section of a curly dock (Rumex crispus) leaf, aproximately 2.5 centimeters wide and 4 centimeters long, is immersed in the test solution for 2-3 seconds, then placed on a wire screen to dry. The dried leaf is placed in a petri dish containing a moistened piece of filter paper, and infested with 5 second-instar salt-marsh caterpillar larvae. Mortality of the larvae is recorded 48 hours later. If surviving larvae are still present, a piece of synthetic media is added to the dish and the larvae are observed for an additional 5 days in order to detect delayed effects of the test compound. The primary screening level for this test is 0.05% by weight of the test compound in the solution.
as §1, §2

[5] = system: Cabbage Looper [Trichoplusia ni (Hubner)]; assay: Cabbage looper leaf dip test; details: % by weight in solution, larvae, 48 hours plus 5 days if survivors
Description: as §3
H. Cabbage Looper [Trichoplusia ni (Hubner)]
The procedure for cabbage looper larvae is the same as that used for salt-marsh caterpillar larvae, except that a cotyledon of hyzini squash (Calabacita abobrinha) of approximately the same size as the curly dock leaf section is used in place of the latter. The primary screening level for this test is 0.1% by weight of the test compound in the solution.
as §1, §2

[6] = system: Two-Spotted Mite [Tetranychus urticae (Koch)]; assay: Two-spotted mite plant dip test; details: tested at primary screening level 0.05% only, < means more than 50% kill, > less than 50% kill, 7 days
Description: J. Two-Spotted Mite [Tetranychus urticae (Koch)]
A pinto bean plant (Phaseolus sp.), approximately 10 cm tall is transplanted into sandy loam soil in a 3-inch clay pot and infested with two-spotted mites of mixed ages and sexes. Twenty-four hours later the infested plants are inverted and dipped for 2-3 seconds in a 50-50 acetone-water solution of the test compound. The treated plant is held in a greenhouse for 7 days. Mortality is then determined for both the adult mites and the nynmphs hatching from eggs which were on the plants at the time of treatment. The primary screening level for this test is 0.05% by weight of the test compound in the acetone-water solution.
as §1

[7] = system: Southern House Mosquito [Culex pipiens quinquefasciatus (Say)]; assay: Southern house mosquito larvae test; details: ppm by weight in aqueous solution, third-instar larvae, mortality after 48 hours
Description: K. Southern House Mosquito [Culex pipiens quinquefasciatus (Say)]
Insecticidal activity is determined using third-instar larvae of the mosquito (Culex pipiens quinquefasciatus). Ten larvae are placed in a 6-ounce, number 67 Dixie wax paper cup containing 100 milliliters of an aqueous solution of the test chemical. The treated larvae are stored at 70° F, and 48 hours later the mortality is recorded. The primary screening level for this test is 1 ppm by weight of the test compound in the solution.
as §1, §2

[8] = system: German Cockroach [Blatella germanica (Linne)]; assay: German cockroach spray insecticide evaluation; details: % by weight in acetone-water spray; nymphs; mortality after 7 days
Description: B. German Cockroach [Blatella germanica (Linne)]
The test compound is diluted in a 50-50 acetone-water solution. Two milliliters of the solution are sprayed through a DeVilbiss type EGA hand spray gun into a circular cardboard cage contaning 10 1-month-old German Cockroach nymphs. The test cage is covered on the bottom with cellophane and the top with tulle netting. Percent mortality is recorded after 7 days. The primary screening level for this test is 0.1% by weight of the test compound in the acetone-water solution.
as §1, §2

[9] = system: Lygus bug [Lygus hesperus (Knight)]; assay: Lygus bug spray insecticide evaluation; details: % by weight in acetone-water spray; adults; mortality after 48 hours
Description: C. Lygus bus [Lygus hesperus (Knight)]
The test compound is dissolved in a 50-50 acetone-water solution. Two cubic centimeters of the solution are sprayed through a DeVilbiss-type EGA hand spray gun into a circular cardboard cage covered on the bottom with cellophane and the top with tulle netting, containing one string bean pod and 10 adult lygus bugs. Percent mortality is recorded after 48 hours. The primary screening level for this test is 0.5% by weight of the test compound in the acetone-water solution.
as §1, §2

[10] = system: Black Bean Aphid [Aphis fabae (Scop.)]; assay: Systemic assay on black bean aphid; details: ppm by weight in soil, mortality after seven days
Description: F. Systemic Assay on Black Bean Aphid [Aphis fabae (Scop.)]
The test chemical is diluted in acetone and an aliquot is thoroughly mixed into 500 grams of dry, sandy loam soil. The treated soil is placed in a pint ice cream carton and a nasturtium plant (Tropaeolum sp.) approximately 5 cm tall is transplanted into the carton. The plant is then infested with approximately 25 black bean aphids of mixed ages and placed in the greenhouse. Seven days later mortality is recorded. The primary screening level for this test is 10 ppm by weight of the test compound in the soil.
as §1, §2

[11] = system: Tobacco Budworm [Heliotis virescens (F.)]; assay: Tobacco budworm leaf dip test; details: % by weight in solution, larvae, 48 hours plus 5 days if survivors
Description: as §3
I. Tobacco Budworm [Heliotis virescens (F.)]
Larvae of the tobacco budworm are used in this test in a procedure identical to that used for salt-marsh caterpillar larvae, except that a Romaine lettace (Latua sativa) leaf section of approximately the same size as the curly dock leaf section is used in place of the latter. The primary screening level for this test is 0.1% by weight of the test compound in the solution.
as §1
In cases where this level was found, the level is reported as the LD50. […]

SMILES	Approximate LD50, HF (housefly) [1] [µg]	Approximate LD50, BBA (black bean aphid) [2]	Approximate LD50, GPA (green peach aphid) [3]	Approximate LD50, SMC (salt-marsh caterpillar) [4]	Approximate LD50, CL (cabbage looper) [5]	Approximate LD50, 2SM (two-spotted mite) (2) eggs [6]	Approximate LD50, 2SM (two-spotted mite) (1) post-embryonic [6]	Approximate LD50, MOS (Southern house mosquito) [7]	Approximate LD50, GR (German cockroach) [8]	Approximate LD50, LB (Lygus bug) [9]	Approximate LD50, BAS (bean aphid systemic) [10] [ppm]	Approximate LD50, TBW (tobacco budworm) [11]	LC50 ([7]; read-out: Approximate LD50, MOS (Southern house mosquito)) [µg/mL]
COP(=S)(OC)SCC(=O)Nc1nc(NC(=O)CSP(=S)(OC)OC)c(-c2ccccc2)s1 [Compound 9]	> 100	.2%	.15%	> .05%	> .5%	< .05%	> .05%	> 1.0 ppm					
CCOP(=O)(OCC)SCC(=O)Nc1csc(NC(=O)CSP(=O)(OCC)OCC)n1 [Compound 8]	> 100	.001%	.03%	> .05%	> .1%	< .05%	< .05%	> 1.0 ppm	> .1%	> .05%	> 10	> .1%	
CCOP(=S)(OCC)SCC(=O)Nc1csc(NC(=O)CSP(=S)(OCC)OCC)n1 [Compound 1]	> 100	.05%		> .05%	> .1%	< .05%	< .05%	.8 ppm	> .1%	> .05%	> 10	> .1%	
COP(=S)(OC)SCC(=O)Nc1csc(NC(=O)CSP(=S)(OC)OC)n1 [Compound 2, 2,4-Bis(O,O -dimethylphosphorodithioylacetamide)thiazole]	> 100	.002%	.03%	> .05%	> .1%	> .05%	< .05%		> .1%	> .05%	> 10	> .1%	> 1
